Data on 3 compounds can be found in patent US5589335A, “Hybridization promotion reagents” (Amoco Corporation, priority 1994, dated 1996).

Series [1] has as its target Proteinase K (Parengyodontium album, UniProt P06873). The series can be described thus: Proteinase K activity (digestion of 14C-labeled BSA). Format: biochemical. As for the experimental part:
Prior to empirical determination, it could not be predicted whether addition of the GuSCN to TMA.TFA would produce a reagent with the capability of controlling nucleases. The extent of Proteinase K activity in GT^3 was assayed by determining its ability to digest (solubilize) ^14 C-labeled bovine serum albumin (BSA).
These experiments were done twice, and the percentages below are the averages of the two experiments; the numbers in parentheses are the experimental variations.

The target of series [2] is T1, RNase A (Bos taurus, UniProt P61823).
T1 sequence (P61823 27-150): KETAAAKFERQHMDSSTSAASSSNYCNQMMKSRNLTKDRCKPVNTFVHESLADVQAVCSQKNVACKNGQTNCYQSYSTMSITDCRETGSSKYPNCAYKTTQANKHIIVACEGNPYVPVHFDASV
The series can be described thus: RNase A inhibition (capturable rRNA target complex). In kind it is biochemical. As to conditions: for % RNase inhibition: 37° C., 15 minutes; for RNase inactivated: RNase 0.125 μg/ml, 15 min. As for the experimental part:
Though the ability of a hybridization medium to support protease activity is desirable, an equally (or more) important property is the capability of inhibiting nucleases, especially ribonucleases. […] The experimental protocol was a follows:
1) A target complex was prepared by hybridizing target rRNA (from Salmonella extracts), capture probe (dA-676), and ^32 P-labeled 3'-Riboprobe (as earlier described).
2) The target complex was diluted into each of the above four test reagents.
3) RNase A solutions of various concentrations (0-250 μg/ml in […] phosphate buffer pH7) were prepared. Into tubes of the diluted target complex was added RNase A, to one of the final concentrations noted in Table 3 below. The control comprised only phosphate buffer diluent. The mixtures were incubated at 37° C. for 15 minutes. Proteinase K was added to a final concentration of 1.25 mg/ml to stop the nuclease activity.
4) Tailed probes and hybridized complexes were captured on magnetic beads (as previously described), which were washed and counted. The level of RNase inhibition was calculated as follows. [formula]

Series [3] is described as follows: Reagent stability. Format: physicochemical. The procedure:
TMA.TFA was prepared by combining equimolar amounts of concentrated Trifluoroacetic acid (Sigma Chemical Co. or Pierce Chemical Co.) and TMA.OH (Sigma Chemical Co. or Southwestern Analytical Chemicals, Inc.) and buffering it with 0.1M phosphate, 0.1M borate, 0.05 mM EDTA (phosphoric acid, boric acid, and EDTA (free acid), neutralized with TMA.OH). Buffered TMA.TFA remained at a constant pH for at least 1 year and its refractive index indicated a loss of only 2-3% of the solutes over the same period.
TMA.TCA is ideally prepared by neutralizing highly concentrated TCA (~9.3M, or ~1.5 g/ml) with TMA.OH. […] This is ideally avoided since the efficiency of hybridization falls as the pH becomes less neutral. […] From the mass, volume and concentration of starting materials, and the volume of the final solution, the nominal concentration of the final product was calculated to be about 3M.

Structures are written as SMILES. Structures can show the parent of a compound that is named as a salt.

Proteinase K, sequence (P06873 106-384): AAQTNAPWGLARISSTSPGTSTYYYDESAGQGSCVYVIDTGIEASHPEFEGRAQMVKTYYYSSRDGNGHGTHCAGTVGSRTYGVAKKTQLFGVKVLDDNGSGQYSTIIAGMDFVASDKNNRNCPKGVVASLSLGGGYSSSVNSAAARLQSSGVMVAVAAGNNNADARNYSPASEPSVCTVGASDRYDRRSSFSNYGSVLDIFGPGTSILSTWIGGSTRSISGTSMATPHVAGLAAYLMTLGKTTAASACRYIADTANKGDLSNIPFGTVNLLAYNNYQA

On to `N=C(N)N` [GuSCN, Guanidinium thiocyanate], for which, in series [1] (Proteinase K in reagent), the “% BSA solubilized” value is recorded as 41% (+/-10%). Also, the “half-life of Proteinase K activity” value in series [1] (incubation at 37° C. in reagent) was “less than an hour”. For the same compound, the “% RNase inhibition” value in series [2] (RNase A 0.00 ug/ml), in series [2] (RNase A 0.13 ug/ml), in series [2] (RNase A 1.25 ug/ml), in series [2] (RNase A 4.17 ug/ml) and in series [2] (RNase A 12.50 ug/ml) was 100% throughout.

In the case of `C[N+](C)(C)C` [TMA.TCA, Tetramethyammonium:Trichloroacetate], in series [1], the “Proteinase K activity in reagent” value is reported as “advantageously active”. Moreover, the pH stability entry in series [3] (buffered with phosphate (0.1M) and borate (0.1M)) is given as “at least one month”.

With `C[N+](C)(C)C` [TMA.TFA, Tetramethyammonium:Trifluoroacetate], the “RNase A inhibition” value in series [2] was “relatively ineffective in inactivating RNase”. For the same compound, the RNase inactivated is 92% in series [2] (with Proteinase K 2.5 mg/ml) and 73% in series [2] (without the protease). In addition, in series [3] (buffered solution), the “time at constant pH” value was “at least 1 year”.
